Experimental data from ChEMBL document CHEMBL4251541, “Microwave-enhanced Friedländer synthesis for the rapid assembly of halogenated quinolines with antibacterial and biofilm eradication activities against drug resistant and tolerant bacteria” (Medchemcomm, 2017).
Converted amounts (≈) assume the structure as drawn.

Tests used:
Enterococcus faecium [1] = assay: Antibiofilm activity against vancomycin-resistant Enterococcus faecium ATCC 700221 after 24 hrs by calgary biofilm device-based assay; format: functional
Staphylococcus aureus [2] = assay: Bactericidal activity against methicillin-resistant Staphylococcus aureus isolate 2 after 24 hrs by calgary biofilm device-based assay; format: functional; details: isolate 2, 24 h
[3] = tested on: Staphylococcus epidermidis; assay: Antibacterial activity against methicillin-resistant Staphylococcus epidermidis ATCC 35984 after 16 to 18 hrs by broth microdilution method; format: functional
[4] = tested on: Staphylococcus epidermidis; assay: Bactericidal activity against methicillin-resistant Staphylococcus epidermidis ATCC 35984 after 24 hrs by calgary biofilm device-based assay; format: functional; details: ATCC 35984, 24 h
[5] = Hemolytic activity in human RBC at 200 uM after 1 hr relative to control; format: ADME, cell-based, Erythrocyte; details: red blood cells (erythrocytes), read-out: Activity
Staphylococcus aureus [6] = assay: Antibiofilm activity against methicillin-resistant Staphylococcus aureus isolate 2 after 24 hrs by calgary biofilm device-based assay; format: functional
Enterococcus faecium [7] = assay: Antibacterial activity against vancomycin-resistant Enterococcus faecium ATCC 700221 after 16 to 18 hrs by broth microdilution method; format: functional
Staphylococcus aureus [8] = assay: Antibacterial activity against methicillin-resistant Staphylococcus aureus isolate 2 after 16 to 18 hrs by broth microdilution method; format: functional
Enterococcus faecium [9] = assay: Bactericidal activity against vancomycin-resistant Enterococcus faecium ATCC 700221 after 24 hrs by calgary biofilm device-based assay; format: functional; details: ATCC 700221, 24 h
[10] = tested on: Staphylococcus epidermidis; assay: Antibiofilm activity against methicillin-resistant Staphylococcus epidermidis ATCC 35984 after 24 hrs by calgary biofilm device-based assay; format: functional
Staphylococcus aureus [11] = assay: Bactericidal activity against methicillin-resistant Staphylococcus aureus BAA 1707 after 24 hrs by calgary biofilm device-based assay; format: functional; details: BAA 1707, 24 h
Staphylococcus aureus [12] = assay: Antibiofilm activity against methicillin-resistant Staphylococcus aureus BAA 1707 after 24 hrs by calgary biofilm device-based assay; format: functional

| Compound | MBEC (Enterococcus faecium [1]) | MBC (Staphylococcus aureus [2]) | MIC [3] | MBC [4] | hemolysis at 1 h, 200 µM [5] | MBEC (Staphylococcus aureus [6]) | MIC (Enterococcus faecium [7]) | MIC (Staphylococcus aureus [8]) | MBC (Enterococcus faecium [9]) | MBEC [10] | MBC (Staphylococcus aureus [11]) | MBEC (Staphylococcus aureus [12]) |
| --- | --- | --- | --- | --- | --- | --- | --- | --- | --- | --- | --- | --- |
| CCCCCCCCCCCC[N+](C)(C)CC[N+](C)(C)CC[N+](C)(C)CCCCCCCCCCCC | 3 µM | 31.3 µM | 2.35 µM | 31.3 µM | > 99% | 125 µM | 2.35 µM | 3.13 µM | 3 µM | 31.3 µM | – | – |
| CC(=O)c1cc2c(Br)cc(Br)c(O)c2nc1C | – | 250 µM (≈ 89.8 µg/mL) | 6.25 µM (≈ 2.24 µg/mL) | – | 2.3% | >1000 µM | 25 µM (≈ 8.98 µg/mL) | 1.56 µM (≈ 0.56 µg/mL) | – | – | – | – |
| Cc1nc2c(O)c(Br)cc(Br)c2cc1C(=O)O/C(=N\C1CCCCC1)NC1CCCCC1 | – | – | 1.56 µM (≈ 0.885 µg/mL) | – | ≤ 1% | – | 25 µM (≈ 14.2 µg/mL) | 12.5 µM (≈ 7.09 µg/mL) | – | – | – | – |
| Cc1nc2c(O)c(Br)cc(Br)c2cc1C(=O)N1CCOCC1 | – | – | 50 µM (≈ 21.5 µg/mL) | – | ≤ 1% | – | > 100 µM | 100 µM (≈ 43 µg/mL) | – | – | – | – |
| Cc1nc2c(O)c(Br)cc(Br)c2cc1C(=O)c1ccccc1 | 23.5 µM | 15.6 µM (≈ 6.57 µg/mL) | 3.13 µM (≈ 1.32 µg/mL) | 5.9 µM (≈ 2.48 µg/mL) | 2.5% | 23.5 µM | 0.78 µM (≈ 0.328 µg/mL) | 0.59 µM (≈ 0.248 µg/mL) | 46.9 µM (≈ 19.7 µg/mL) | 1 µM | 7.8 µM (≈ 3.28 µg/mL) | 3.9 µM |
| Oc1c(Br)cc(Br)c2ccc(-c3ccccc3)nc12 | – | – | – | – | 1.9% | – | > 100 µM | 25 µM (≈ 9.48 µg/mL) | – | – | – | – |
| COC(=O)c1cc2c(Br)cc(Br)c(O)c2nc1C | – | – | 0.3 µM (≈ 0.113 µg/mL) | – | 1.5% | – | 2.35 µM (≈ 0.881 µg/mL) | 1.56 µM (≈ 0.585 µg/mL) | – | – | – | – |
| CCCNC(=O)c1cc2c(Br)cc(Br)c(O)c2nc1C | – | – | 12.5 µM (≈ 5.03 µg/mL) | – | 7% | – | 50 µM (≈ 20.1 µg/mL) | 37.5 µM (≈ 15.1 µg/mL) | – | – | – | – |
| Cc1cnc2c(O)c(Br)cc(Br)c2c1 | 5.9 µM | 15.6 µM (≈ 4.94 µg/mL) | 1.17 µM (≈ 0.371 µg/mL) | 23.5 µM (≈ 7.45 µg/mL) | ≤ 1% | 46.9 µM | – | 3.13 µM (≈ 0.992 µg/mL) | 7.8 µM (≈ 2.47 µg/mL) | 31.3 µM | – | – |
| CCOC(=O)c1c(C)nc2c(O)c(Br)cc(Br)c2c1C | – | – | 1.17 µM (≈ 0.472 µg/mL) | – | ≤ 1% | – | 4.69 µM (≈ 1.89 µg/mL) | 6.25 µM (≈ 2.52 µg/mL) | – | – | – | – |
| Oc1c(Br)cc(Br)c2cc(Cc3ccccc3)cnc12 | – | – | 3.13 µM (≈ 1.23 µg/mL) | – | 4.6% | – | 18.8 µM (≈ 7.39 µg/mL) | 50 µM (≈ 19.7 µg/mL) | – | – | – | – |
| Cc1nc2c(O)c(Br)cc(Br)c2cc1C(=O)OCc1ccccc1 | 1.5 µM | 375 µM (≈ 169 µg/mL) | 0.1 µM (≈ 0.0451 µg/mL) | 46.9 µM (≈ 21.2 µg/mL) | 7.9% | >1000 µM | 0.3 µM (≈ 0.135 µg/mL) | 6.25 µM (≈ 2.82 µg/mL) | 3.9 µM (≈ 1.76 µg/mL) | 15.6 µM | – | – |
| Oc1c(Br)cc(Br)c2ccc(-c3ccccn3)nc12 | – | – | – | – | ≤ 1% | – | 25 µM (≈ 9.5 µg/mL) | 37.5 µM (≈ 14.3 µg/mL) | – | – | – | – |
| Cc1nc2c(O)c(Br)cc(Br)c2cc1C(=O)O | – | – | 25 µM (≈ 9.02 µg/mL) | – | 2.5% | – | > 100 µM | 50 µM (≈ 18 µg/mL) | – | – | – | – |
| CCOC(=O)c1cc2c(Br)cc(Br)c(O)c2nc1C | 2 µM | 31.3 µM (≈ 12.2 µg/mL) | 0.1 µM (≈ 0.0389 µg/mL) | 93.8 µM (≈ 36.5 µg/mL) | 2.2% | 31.3 µM | 0.78 µM (≈ 0.303 µg/mL) | 0.39 µM (≈ 0.152 µg/mL) | 3 µM (≈ 1.17 µg/mL) | 23.5 µM | – | – |
| CCc1cnc2c(O)c(Br)cc(Br)c2c1 | 23.5 µM | 46.9 µM (≈ 15.5 µg/mL) | 0.59 µM (≈ 0.195 µg/mL) | 62.5 µM (≈ 20.7 µg/mL) | 2.4% | 188 µM | 12.5 µM (≈ 4.14 µg/mL) | 6.25 µM (≈ 2.07 µg/mL) | 31.3 µM (≈ 10.4 µg/mL) | 46.9 µM | – | – |
| CCc1nc2c(O)c(Br)cc(Br)c2cc1C | – | > 1000 µM | 0.15 µM (≈ 0.0518 µg/mL) | – | ≤ 1% | >1000 µM | 0.78 µM (≈ 0.269 µg/mL) | 6.25 µM (≈ 2.16 µg/mL) | – | – | – | – |
| Cc1nc2c(O)c(Br)cc(Br)c2cc1C(=O)NCc1ccccc1 | – | > 2000 µM | 6.25 µM (≈ 2.81 µg/mL) | – | 13% | >1000 µM | 25 µM (≈ 11.3 µg/mL) | 6.25 µM (≈ 2.81 µg/mL) | – | – | – | – |
| Cc1ccc2c(Br)cc(Br)c(O)c2n1 [BROQUINALDOL] | 2 µM | 23.5 µM (≈ 7.45 µg/mL) | 0.2 µM (≈ 0.0634 µg/mL) | 7.8 µM (≈ 2.47 µg/mL) | ≤ 1% | 46.9 µM | 2.35 µM (≈ 0.745 µg/mL) | – | 3 µM (≈ 0.951 µg/mL) | 3 µM | 31.3 µM (≈ 9.92 µg/mL) | 31.3 µM |
| CCCCCCCCCC(=O)N[C@@H](Cc1c[nH]c2ccccc12)C(=O)N[C@@H](CC(N)=O)C(=O)N[C@@H](CC(=O)O)C(=O)N[C@@H]1C(=O)NCC(=O)N[C@@H](CCCN)C(=O)N[C@@H](CC(=O)O)C(=O)N[C@H](C)C(=O)N[C@@H](CC(=O)O)C(=O)NCC(=O)N[C@H](CO)C(=O)N[C@@H]([C@H](C)CC(=O)O)C(=O)N[C@@H](CC(=O)c2ccccc2N)C(=O)O[C@@H]1C [DAPTOMYCIN] | – | 62.5 µM (≈ 101 µg/mL) | 12.5 µM (≈ 20.3 µg/mL) | – | – | >2000 µM | – | – | – | – | – | – |
| CC(=O)NC[C@H]1CN(c2ccc(N3CCOCC3)c(F)c2)C(=O)O1 [LINEZOLID] | – | – | 3.13 µM (≈ 1.06 µg/mL) | – | ≤ 1% | >2000 µM | 3.13 µM (≈ 1.06 µg/mL) | 3.13 µM (≈ 1.06 µg/mL) | – | – | – | – |
| CN[C@H](CC(C)C)C(=O)N[C@H]1C(=O)N[C@@H](CC(N)=O)C(=O)N[C@H]2C(=O)N[C@H]3C(=O)N[C@H](C(=O)N[C@H](C(=O)O)c4cc(O)cc(O)c4-c4cc3ccc4O)[C@H](O)c3ccc(c(Cl)c3)Oc3cc2cc(c3O[C@@H]2O[C@H](CO)[C@@H](O)[C@H](O)[C@H]2O[C@H]2C[C@](C)(N)[C@H](O)[C@H](C)O2)Oc2ccc(cc2Cl)[C@H]1O [VANCOMYCIN] | 200 µM | 3 µM (≈ 4.35 µg/mL) | – | – | ≤ 1% | >2000 µM | > 100 µM | – | > 200 µM | >2000 µM | 3.9 µM (≈ 5.65 µg/mL) | >2000 µM |
